The target of test [1] is Large T antigen (Simian virus 40, UniProt P03070). In kind it is functional, Betapolyomavirus macacae.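 Further: Confirmatory-stage PubChem screen for compounds that inhibit SV40 T antigen.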
The target of test [2] is Paired box protein Pax-8 (Homo sapiens, UniProt Q06710). In words: PAX8 transcriptional activity inhibition in RMG-I – RMG-I cells, luciferase, cherry-pick, dose response (AID 687027).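 Further: luciferase reporter driven by Pax8 target thyroperoxidase promoter measured by SteadyGlo luminescence.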 The class given is functional, cell-based.
The nature of test [3]: cells. The class given is functional.
Test [4] in a line: viability of HCT116 lacking mutant beta-catenin – cell-based, human colon tumor, dose response (AID 1045).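 Further: HCT116 colon tumor cells with beta catenin knocked out; cells exposed to compound for 60 hours.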 In kind it is functional.
The nature of test [5]: viability of PTEN-deleted HCT116 cells – cell-based, HCT116 PTEN knockout, dose response (AID 1047).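 Further: HCT116 colon tumor cells with PTEN knocked out; cells exposed to compound for 60 hours before readout; potency for loss of cell viability measured by luminescence.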 In kind it is functional.
Test [6] has as its target T1, Corticotropin-releasing factor receptor 2/Corticotropin-releasing factor-binding protein (Homo sapiens, UniProt P24387+Q13324).
T1 sequence (Q13324 whole entry): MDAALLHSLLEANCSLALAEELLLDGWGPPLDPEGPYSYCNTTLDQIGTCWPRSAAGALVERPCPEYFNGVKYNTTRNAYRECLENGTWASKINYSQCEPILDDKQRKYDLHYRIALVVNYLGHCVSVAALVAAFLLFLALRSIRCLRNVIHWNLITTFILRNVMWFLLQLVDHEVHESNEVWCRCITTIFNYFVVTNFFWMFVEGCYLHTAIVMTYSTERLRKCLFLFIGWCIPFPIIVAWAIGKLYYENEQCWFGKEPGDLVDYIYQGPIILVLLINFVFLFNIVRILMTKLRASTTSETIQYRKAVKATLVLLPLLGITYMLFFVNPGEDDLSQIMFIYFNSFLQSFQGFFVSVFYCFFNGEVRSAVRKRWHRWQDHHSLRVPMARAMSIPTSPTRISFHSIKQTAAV
T1 sequence (P24387 whole entry): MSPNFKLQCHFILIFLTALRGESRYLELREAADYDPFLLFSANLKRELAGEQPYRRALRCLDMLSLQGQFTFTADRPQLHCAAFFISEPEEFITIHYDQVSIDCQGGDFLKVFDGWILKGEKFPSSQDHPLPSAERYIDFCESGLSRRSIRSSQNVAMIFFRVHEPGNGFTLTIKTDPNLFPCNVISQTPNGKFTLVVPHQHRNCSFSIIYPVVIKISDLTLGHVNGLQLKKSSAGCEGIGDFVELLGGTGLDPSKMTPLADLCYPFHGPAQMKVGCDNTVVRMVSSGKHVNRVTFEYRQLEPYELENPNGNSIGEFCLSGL
Nature of the test: Dose Response confirmation of uHTS hits for small molecule antagonists of the CRF-binding protein and CRF-R2 receptor complex. As to conditions: read-out: IC50_Mean. In kind it is functional.

Test [7] deals with T1, Corticotropin-releasing factor receptor 2/Corticotropin-releasing factor-binding protein. In words: activators of CRF receptor 2 with binding protein – uHTS hits, confirmation (AID 602473). The class given is functional. As to conditions: read-out: EC50_Mean.
Test [8] can be described thus: blockers of HIV-1 ZM109 envelope-driven cell-cell fusion – HeLa effector, CEM target cells, luciferase, cherry-pick, dose response (AID 652058).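 Further: luciferase signal from HIV-1 Env mediated cell-cell fusion of effector and target cells.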 The class given is functional, cell-based.
The nature of test [9]: blockers of HIV-1 envelope-mediated cell-cell fusion – cherry-pick, dose response (AID 652057). In kind it is functional, cell-based.

The source made the active and inactive calls.

Large T antigen, sequence (P03070 whole entry): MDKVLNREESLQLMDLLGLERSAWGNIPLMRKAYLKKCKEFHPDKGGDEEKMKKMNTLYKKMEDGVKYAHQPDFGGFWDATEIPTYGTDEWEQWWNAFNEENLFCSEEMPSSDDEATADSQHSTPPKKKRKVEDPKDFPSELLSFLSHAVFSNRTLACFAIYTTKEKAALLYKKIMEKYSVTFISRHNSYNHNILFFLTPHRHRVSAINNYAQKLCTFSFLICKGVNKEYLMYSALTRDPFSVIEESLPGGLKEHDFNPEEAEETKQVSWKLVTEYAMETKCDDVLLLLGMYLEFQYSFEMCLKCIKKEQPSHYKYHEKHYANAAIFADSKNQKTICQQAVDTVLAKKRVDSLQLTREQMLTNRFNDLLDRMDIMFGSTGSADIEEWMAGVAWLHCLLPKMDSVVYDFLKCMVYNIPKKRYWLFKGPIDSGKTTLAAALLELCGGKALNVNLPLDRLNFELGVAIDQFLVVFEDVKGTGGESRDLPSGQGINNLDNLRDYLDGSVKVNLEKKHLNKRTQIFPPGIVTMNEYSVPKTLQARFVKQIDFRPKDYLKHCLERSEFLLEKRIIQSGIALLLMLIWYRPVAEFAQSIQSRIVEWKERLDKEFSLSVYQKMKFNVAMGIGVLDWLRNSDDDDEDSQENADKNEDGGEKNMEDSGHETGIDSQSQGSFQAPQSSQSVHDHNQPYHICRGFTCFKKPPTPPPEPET
Paired box protein Pax-8, sequence (Q06710 whole entry): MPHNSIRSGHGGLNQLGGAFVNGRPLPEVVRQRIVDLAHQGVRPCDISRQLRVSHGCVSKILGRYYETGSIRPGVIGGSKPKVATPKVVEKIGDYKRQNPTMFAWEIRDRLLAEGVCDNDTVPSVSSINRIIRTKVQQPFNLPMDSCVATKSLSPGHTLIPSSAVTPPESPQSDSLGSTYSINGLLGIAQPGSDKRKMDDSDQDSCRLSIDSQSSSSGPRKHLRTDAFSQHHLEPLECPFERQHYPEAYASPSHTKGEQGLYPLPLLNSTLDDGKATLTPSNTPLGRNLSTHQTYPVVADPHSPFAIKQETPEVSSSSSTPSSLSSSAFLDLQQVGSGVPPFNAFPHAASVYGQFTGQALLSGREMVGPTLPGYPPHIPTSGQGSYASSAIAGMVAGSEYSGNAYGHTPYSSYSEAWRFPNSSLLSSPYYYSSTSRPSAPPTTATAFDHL

As for `COc1cc(CNc2ccc3c(c2)OCCO3)ccc1OCC(N)=O`, in test [1], the IC50 was 40 µM (active).

Broadly, the AC50 is the concentration at which the activity in the assay is half-maximal. Regarding `Brc1ccc(-n2cc(-c3ccccc3)c3c(NN4CCOCC4)ncnc32)cc1`, the AC50 in test [2] is 35.8 µM (active).

For `CCOC(=O)CNc1ccc(C(=O)OCC)cc1[N+](=O)[O-]`, in test [3], the IC50 was 13.3 µM (active).

With `COc1ccccc1-c1cc(-c2ccccc2)nc(SC(C(N)=O)c2ccccc2)c1C#N` (stereo not drawn), the EC50 in [4] was 7.47 µM (active); in test [5], 5.97 µM (active).

`O=C1NC(=O)C(=Cc2ccccc2OCCOc2ccc([N+](=O)[O-])cc2)C(=O)N1`: the IC50 in test [1] is 55.9 µM (active).

With `CCOc1ccccc1NC(=O)N1CCCC(c2nc(O)c3nnn(Cc4ccc(C)cc4)c3n2)C1` (stereo not drawn), the EC50 in test [4] is 37.4 µM (active); in test [5] it was 33.7 µM (active).

On to `COc1ccc(Nc2nc(N)nc(CN3CCc4ccccc4C3)n2)cc1`, for which the EC50 was 33.2 µM (active) in test [4] and 41.9 µM (active) in test [5].

On to `O=C(Nc1ccc(O)cc1)c1ccc2c(c1)C(=O)N(Cc1ccco1)C2=O`, for which the IC50 in test [1] was 9.65 µM (active).

For the molecule `COc1ccc(CCNC(=O)c2c(N)n(CCN3CCOCC3)c3nc4ccccc4nc23)cc1`, the EC50 in test [4] is 18.4 µM (active); in test [5] it was 13.4 µM (active).

`CN(C)c1ccc(NC(=O)COC(=O)CCC(=O)c2ccc(F)cc2)cc1`: in [1], the IC50 is 19.2 µM (active).

With `CCOC(=O)C1CCN(c2nc3cc(OC)ccc3cc2C#N)CC1`, the IC50 was > 47.1 µM (inactive) in [6] and 8.59 µM (active) in [3]. In addition, in [7], the EC50 was > 53 µM (inactive).

As to `COc1ccc(NC(=O)Cn2cnc3c(cnn3-c3ccc(C)c(C)c3)c2=O)c(OC)c1`, the EC50 in test [4] is 27.8 µM (active); in [5], 29.5 µM (active).

In the case of `CCOc1ccccc1N=C(S)N(Cc1cc2ccc(C)cc2nc1O)CC1CCCN1CC` (stereo not drawn), the EC50 is 17.4 µM (active) in test [4] and 20.5 µM (active) in test [5].

Regarding `Cc1nn2c(O)c3c(nc2c1-c1ccccc1)CCCC3`, the IC50 in test [3] is 11.8 µM (active).

As to `COCCCNC(=O)COC(=O)c1ccc(-c2nc3ccccc3s2)s1`, the IC50 in test [3] was 10.5 µM (active).

As for `COc1cc(OC)cc(C(=O)NCC(=O)N2CCN(c3ccc(O)cc3)CC2)c1`, in test [1], the IC50 is 65.2 µM (active).

As to `COc1cc(OC)cc(-c2nc3ccccc3c(=O)o2)c1`, the IC50 in [3] is 8.58 µM (active).

With `C[C@H]1CCCCO[C@H](CN(C)Cc2ccc(C(F)(F)F)cc2)[C@@H](C)CN([C@@H](C)CO)C(=O)c2cc(NC(=O)Nc3ccc(F)cc3)ccc2O1`, the AC50 in test [2] was 10.6 µM (active).

As for `COc1ccc(S(=O)(=O)N[C@H]2C=C[C@H](CC(=O)N3CCN(c4ccccc4)CC3)O[C@@H]2CO)cc1`, the AC50 was 36.8 µM (active) in test [8] and 26.7 µM (active) in test [9].

In the case of `C[C@H](CO)N1C[C@H](C)[C@H](CN(C)S(=O)(=O)c2cccs2)OCCCC[C@H](C)Oc2ccc(NC(=O)NC3CCCCC3)cc2C1=O`, the AC50 in test [2] is 10.7 µM (active).

`Cc1cccc(-c2ccc([C@H]3[C@H](CO)N4CCCCN(S(=O)(=O)c5ccccc5C)C[C@@H]34)cc2)c1`: in [2], the AC50 is 11.4 µM (active).

Take `COc1ccc2[nH]c3c(=O)n(CCCCC(=O)NCCN4CCCC4)c(=S)[nH]c3c2c1`: the IC50 in test [1] was 10.4 µM (active).

As for `CSCC[C@H](NC(=O)OC(C)(C)C)C(=O)N/N=C/c1cc2ccc(C)cc2nc1Cl`, the figures for the EC50 in [4] and in test [5] were 17.7 µM (active) and 18.7 µM (active), respectively.

The record behind these values is ChEMBL document CHEMBL1201862, “PubChem BioAssay data set” (2004).
